This is an account of results in patent publication US20100040628A1 (OsteoGeneX, Inc, priority 2008, published 2010).

The subject of one experiment is C57BL/6 mice. The experiment in a line: Bone growth with indoprofen: pQCT analysis on the femur after 30 days of daily treatment. It counts as in vivo, mouse. To be noted: four month old male C57BL/6 mice, 2 mg/kg i.p. daily for 30 days, FIG. 2. How it is done:
Four month old male C57BL/6 mice were treated daily with saline vehicle or the sclerostin inhibitor of indoprofen at 2 mg/kg (via i.p) for 30 days. Study endpoints included measurement of trabecular bone mineral content and bone mineral density by pQCT analysis on the femur.

The test system of a further experiment is Wnt pathway. The experiment can be described thus: Wnt pathway modulation to promote bone growth (FIG. 1). To be noted: doses of 2.5 ng (low), 60 ng (medium), 125 ng (high) and 1250 ng (very high). The protocol: For example, the mouse test animal is treated with a predetermined dose of a SOST antagonist candidate for a complete dosing schedule. A control mouse is treated with a control solution, preferably a non-irritating buffer solution or other carrier. Once the dosing schedule has been completed, both test and control animals are examined with sacrifice using micro-CT to determine the quantity of bone formation present.

Another experiment concerns mouse. The experiment in a line: Mouse bone formation assay, micro-CT examination of test vs control animals. It counts as in vivo. The settings on record: predetermined dose for a complete dosing schedule, vs control solution. An excerpt: Compounds useful in the methods of the present invention can be identified via a variety of methods known to one of skill in the art. Several exemplary methods for identifying such antagonists are described herein, including cell-based and in vitro techniques (Journal of Bone and Mineral Research 2006, 21(11), 1738-1749). A general method of identifying SOST antagonists involves evaluating the effects of antagonist candidates on bone formation under controlled conditions. Preferably bone formation is determined using micro-CT techniques on live animals. Preferred animals include rodents, more preferred are primates. Femur, tibia and vertebrae bones are particularly useful subjects for such study.
Briefly, the test animal is treated with a predetermined dose of a SOST antagonist candidate. […]
Once the dosing schedule has been completed, both test and control animals are examined to determine the quantity of bone formation present. […] Where necessary, levels of bone formation can be calculated by determining the volume of bone formation present in each animal. […]
For example, the mouse test animal is treated with a predetermined dose of a SOST antagonist candidate for a complete dosing schedule. […] Once the dosing schedule has been completed, both test and control animals are examined with sacrifice using micro-CT to determine the quantity of bone formation present.

As to `CC(C(=O)O)c1ccc(N2Cc3ccccc3C2=O)cc1` (stereo not shown) [indoprofen], the “increase for trabecular bone mineral density (BMD)” value with C57BL/6 mice (pQCT on femur) was “greater than 2%”. Besides, in the experiment on C57BL/6 mice (pQCT), the “increase in bone mineral content (BMC) for the femur over baseline controls” value is on record as “greater than 6%”. Also, the “modulation of the Wnt pathway to promote bone growth” value with Wnt pathway is “modulating the Wnt pathway to promote bone growth”. In addition, in the experiment with mouse, the “promotion of bone growth (quantity of bone formation by micro-CT)” value is listed as “promoting bone growth”.
